Results as given in paper PMC10827914 (Cellular and Molecular Life Sciences: CMLS, 2024).
Blank lines part the entries; values can stand above or below the molecule they belong to. Where a SMILES comes first, the peptide text is derived from it. Bridges are numbered along the chain shown (N, C = ends). Where no end group is shown, it is not given here.

Key:
[1] = target: T1, recombinant human CD13 (rCD13) (Homo sapiens, UniProt P15144); assay: rCD13 enzyme inhibition assay, L-alanine-p-nitroanilide substrate; format: biochemical; details: for IC50: rCD13 0.2 μg/mL, L-alanine-p-nitroanilide 0.5 mM, 60 mM potassium phosphate buffer pH 7.4, 30 min, 37 °C, absorbance, mean ± SEM of n independent experiments, read-out: IC50: peptide concentration that inhibits 50% of rCD13 enzymatic activity
T1 construct: consisting of the CD13 extracellular domain expressed in HEK-293 cells; His-tag; purchased Sino Biological 10051-H08H; host or cells: HEK-293 cells
Procedure: (§1) Recombinant CD13 (rCD13) enzyme activity and inhibition assays were performed as described previously using L-alanine-p-nitroanilide or L-alanine 7-amido-4-methylcoumarin as substrates in 60 mM Tris–HCl, pH 7.4, or 60 mM potassium phosphate buffer, pH 7.4. Mixtures containing peptides at various concentrations, rCD13 (0.2 µg/mL), and L-alanine-p-nitroanilide substrate (0.5 mM) in 60 mM potassium phosphate buffer, pH 7.4 (total volume, 0.1 ml) were prepared and left to react for 30 min at 37 °C. The products were then analyzed using a plate reader (iMark Microplate Absorbance Reader; Bio-Rad). Alternatively, the assay was performed using 0.1 mM L-alanine 7-amido-4-methylcoumarin in 60 mM Tris–HCl, pH 7.4, as a substrate. Fluorescence intensity of methylcoumarin was measured on an Infinite 200 PRO plate reader (Tecan) using the following settings: excitation wavelength: 341 nm; emission wavelength: 441 nm; excitation bandwidth: 9; emission bandwidth: 20 nm; gain: 109 manual; number of flashes: 25; integration time: 20 µs; lag time: 0 µs; settle time: 0 ms.
(§2) The IC50 of each inhibitor was calculated by non-linear regression analysis of inhibition data using GraphPad Prism Software (GraphPad Software, Version 9.00, San Diego, CA). Steady-state enzyme kinetic analyses were performed using various concentrations of L-alanine-p-nitroanilide (0–1.5 mM) and VGCARRYCS peptide (0–900 nM). The initial velocities (Vo) were calculated from the slopes of the first 5 min of reaction. The enzyme inhibitory constant (Ki) was calculated using the competitive enzyme inhibition model in GraphPad Prism Software.
A) VGCGRRYCSN and CSGIGSSGGC (control) peptides, at various concentrations, were mixed with rCD13 (0.2 µg/mL), L-alanine-p-nitroanilide substrate (0.5 mM), in 60 mM potassium phosphate buffer, pH 7.4. The mixtures were left to react for 30 min at 37° C; then the absorbance at 405 nm of each mixture was measured using an ELISA plate reader (Bio-Rad). The IC50 of each inhibitor was calculated by non-linear regression analysis of inhibition data using the GraphPad Prism Software (GraphPad Software, Version 9.00, San Diego, CA). The result of one experiment performed in duplicate is shown (mean ± SEM).

[2] = target: T1, recombinant human CD13 (rCD13); assay: rCD13 enzyme inhibition assay, L-alanine 7-amido-4-methylcoumarin substrate; format: biochemical; details: 0.1 mM L-alanine 7-amido-4-methylcoumarin, 60 mM Tris-HCl pH 7.4, fluorescence; mean ± SEM of n independent experiments; read-out: IC50: peptide concentration that inhibits 50% of rCD13 enzymatic activity
Procedure: as §1, §2
Fig. 2 G4 recognizes soluble forms of CD13, with higher affinity and selectivity than bestatin, and the membrane forms expressed on the surface of HUVEC cells. A Inhibitory effects of G4 and bestatin on the enzymatic activities of different aminopeptidases (rCD13, APA, and APB). Various amounts of G4 or bestatin were incubated with rCD13 (0.2 µg/mL in 60 mM Tris–HCl pH 7.4), APA (0.2 µg/mL in 60 mM Tris–HCl pH 7.4, 50 mM calcium chloride, 200 mM sodium chloride) or APB (0.2 µg/mL in 60 mM Tris–HCl pH 7.4, 100 mM potassium chloride) and the corresponding substrates at 0.1 mM (L-alanine-7-amido-4-methylcoumarin for rCD13, L-glutamic acid γ-(7-amido-4-methylcoumarin) for APA, and L-arginine-7-amido-4-methylcoumarin for APB). The mixtures were incubated for 30 min at 37 °C, and the cleavage of each substrate was monitored by measuring the fluorescence of methylcoumarin (λex 341 nm; λem 441 nm) using an Infinite 200 PRO plate reader (Tecan). Three independent experiments were performed for each enzyme. The results of one representative experiment for each enzyme are shown (mean ± SEM, duplicates). B Inhibitory effects of G4 and bestatin on soluble CD13 immunocaptured from human serum (sCD13) using microtiter plates coated with anti-CD13 mAb WM15. The microtiter plate was filled with a solution of mAb WM15 (5 μg/ml in DPBS) and incubated overnight at 4 °C. The plate was then washed with DPBS, blocked with 3% bovine serum albumin (BSA) in DPBS, and filled with human serum containing soluble CD13 (diluted 1:2 with DPBS containing 2% BSA). After washing with DPBS, mixtures of G4 or bestatin (0–100 µM in 60 mM Tris–HCl, pH 7.4) and L-alanine p-nitroanilide hydrochloride substrate (4.5 mM in 60 mM Tris–HCl, pH 7.4) were added and left to incubate at 37 °C for 2 h. Substrate cleavage by sCD13 dissociated from mAb WM15 was then monitored by measuring the absorbance at 405 nm in each well using a plate reader (Bio-Rad). The results of one experiment performed in triplicate are shown (mean ± SEM). C Effect of G4 on the binding of the anti-CD13 mAb WM15 to HUVEC. HUVEC were seeded at a density of 2 × 10^5 cells in 100 µL DPBS supplemented with 5% normal human serum (NHS) and incubated with a mixture of G4 peptide (0, 0.1, 1, and 10 µM) and mAb WM15 (0 or 0.13 nM) as indicated. […]

[3] = target: His-tagged recombinant human CD13 (rCD13) (human) (UniProt P15144)
His-tagged recombinant human CD13 (rCD13) (human), sequence (P15144 33-967): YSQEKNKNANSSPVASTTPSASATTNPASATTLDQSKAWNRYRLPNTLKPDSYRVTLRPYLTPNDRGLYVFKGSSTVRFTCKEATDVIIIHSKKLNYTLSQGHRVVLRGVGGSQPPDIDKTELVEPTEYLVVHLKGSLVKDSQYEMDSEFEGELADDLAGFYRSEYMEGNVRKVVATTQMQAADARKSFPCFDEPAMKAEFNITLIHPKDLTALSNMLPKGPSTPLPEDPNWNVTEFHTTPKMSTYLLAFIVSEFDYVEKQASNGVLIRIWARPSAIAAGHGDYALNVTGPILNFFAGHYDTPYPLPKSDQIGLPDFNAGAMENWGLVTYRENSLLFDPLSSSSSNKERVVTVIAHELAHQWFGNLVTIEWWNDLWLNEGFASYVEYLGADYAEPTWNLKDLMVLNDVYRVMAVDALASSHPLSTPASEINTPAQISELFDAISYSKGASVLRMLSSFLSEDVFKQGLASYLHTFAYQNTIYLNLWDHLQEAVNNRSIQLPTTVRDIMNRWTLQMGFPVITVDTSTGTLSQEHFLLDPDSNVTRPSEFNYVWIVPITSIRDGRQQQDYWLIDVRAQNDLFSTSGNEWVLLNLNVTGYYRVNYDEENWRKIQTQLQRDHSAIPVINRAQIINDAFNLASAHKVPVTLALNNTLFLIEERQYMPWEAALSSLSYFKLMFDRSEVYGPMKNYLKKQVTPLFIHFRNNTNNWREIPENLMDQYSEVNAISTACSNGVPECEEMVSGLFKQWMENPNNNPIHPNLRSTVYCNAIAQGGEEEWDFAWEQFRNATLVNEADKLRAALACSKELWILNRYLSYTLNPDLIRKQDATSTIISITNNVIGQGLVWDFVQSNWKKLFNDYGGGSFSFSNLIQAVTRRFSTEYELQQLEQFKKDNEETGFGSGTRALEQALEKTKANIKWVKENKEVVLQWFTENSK

T1 sequence (P15144 33-967 limits assumed): as the sequence (P15144 33-967) above

Molecule: VGAGRRYASN [VGAGRRYASN]
IC50 [1]: 6.2 ± 4.8 µM

Molecule: CC(C)[C@H](N)C(=O)NCC(=O)N[C@H]1CSSC[C@@H](C(=O)N[C@@H](CO)C(=O)N[C@@H](CC(N)=O)C(=O)O)NC(=O)[C@H](C)NC(=O)[C@H](CCCNC(=N)N)NC(=O)[C@H](CCCNC(=N)N)NC(=O)CNC1=O [VGCGRRACSN] (H-VGCGRRACSN-OH; disulfide 3-8)
IC50 [1]: 8.9 ± 5.5 µM

Molecule: CC(C)[C@H](N)C(=O)NCC(=O)N[C@H]1CSSC[C@@H](C(=O)O)NC(=O)[C@H](Cc2ccc(O)cc2)NC(=O)[C@H](CCCNC(=N)N)NC(=O)[C@H](CCCNC(=N)N)NC(=O)[C@H](C)NC1=O [VGCARRYC] (H-VGCARRYC-OH; disulfide 3-8)
IC50 [2]: 0.23 ± 0.01 µM

Molecule: CC(C)[C@H](N)C(=O)NCC(=O)N[C@H]1CSSC[C@@H](C(=O)N[C@@H](CO)C(=O)N[C@@H](CC(N)=O)C(=O)O)NC(=O)[C@H](Cc2ccc(O)cc2)NC(=O)[C@H](C)NC(=O)[C@H](CCCNC(=N)N)NC(=O)CNC1=O [VGCGRAYCSN] (H-VGCGRAYCSN-OH; disulfide 3-8)
IC50 [1]: 17.6 ± 4.6 µM

Molecule: CC(C)[C@H](N)C(=O)NCC(=O)N[C@H]1CSSC[C@@H](C(=O)N[C@@H](CO)C(=O)N[C@@H](CC(N)=O)C(=O)O)NC(=O)[C@H](Cc2ccc(O)cc2)NC(=O)[C@H](CCCNC(=N)N)NC(=O)[C@H](CCCNC(=N)N)NC(=O)[C@H](C)NC1=O [VGCARRYCSN] (H-VGCARRYCSN-OH; disulfide 3-8)
IC50 [1]: 0.2 ± 0.06 µM | IC50 [2]: 0.19 ± 0.01 µM

Molecule: CC(C)[C@H](N)C(=O)N[C@@H](C)C(=O)N[C@H]1CSSC[C@@H](C(=O)N[C@@H](CO)C(=O)N[C@@H](CC(N)=O)C(=O)O)NC(=O)[C@H](Cc2ccc(O)cc2)NC(=O)[C@H](CCCNC(=N)N)NC(=O)[C@H](CCCNC(=N)N)NC(=O)CNC1=O [VACGRRYCSN] (H-VACGRRYCSN-OH; disulfide 3-8)
IC50 [1]: 4.5 ± 5.1 µM

Molecule: CC(C)[C@H](N)C(=O)NCC(=O)N[C@H]1CSSC[C@@H](C(=O)N[C@@H](CO)C(=O)N[C@@H](CC(N)=O)C(=O)O)NC(=O)[C@H](Cc2ccc(O)cc2)NC(=O)[C@H](CCCNC(=N)N)NC(=O)[C@H](C)NC(=O)CNC1=O [VGCGARYCSN] (H-VGCGARYCSN-OH; disulfide 3-8)
IC50 [1]: 12.1 ± 8.4 µM

Molecule: C[C@H](N)C(=O)NCC(=O)N[C@H]1CSSC[C@@H](C(=O)N[C@@H](CO)C(=O)N[C@@H](CC(N)=O)C(=O)O)NC(=O)[C@H](Cc2ccc(O)cc2)NC(=O)[C@H](CCCNC(=N)N)NC(=O)[C@H](CCCNC(=N)N)NC(=O)CNC1=O [AGCGRRYCSN] (H-AGCGRRYCSN-OH; disulfide 3-8)
IC50 [1]: 11.4 ± 4.5 µM

Molecule: C[C@@H]1NC(=O)[C@@H](NC(=O)CN)CSSC[C@@H](C(=O)N[C@@H](CO)C(=O)N[C@@H](CC(N)=O)C(=O)O)NC(=O)[C@H](Cc2ccc(O)cc2)NC(=O)[C@H](CCCNC(=N)N)NC(=O)[C@H](CCCNC(=N)N)NC1=O [GCARRYCSN] (H-GCARRYCSN-OH; disulfide 2-7)
IC50 [2]: 40.1 ± 1.9 µM

Molecule: C[C@@H]1NC(=O)[C@@H](NC(=O)CN)CSSC[C@@H](C(=O)N[C@@H](CO)C(=O)O)NC(=O)[C@H](Cc2ccc(O)cc2)NC(=O)[C@H](CCCNC(=N)N)NC(=O)[C@H](CCCNC(=N)N)NC1=O [GCARRYCS] (H-GCARRYCS-OH; disulfide 2-7)
IC50 [2]: 69.5 ± 0.1 µM

The remaining lines, values ahead:

Inhibition of rCD13 enzymatic activity (in words) ([1]; negative control peptide, rCD13 0.2 µg/ml, L-alanine-p-nitroanilide, Supplementary Fig. S2A): no inhibition
Molecule: CSGIGSGGC [negative control peptide, reference compound]

IC50 [1]: 2.01 ± 1.1 µM
Molecule: CC(C)[C@H](N)C(=O)NCC(=O)N[C@H]1CSSC[C@@H](C(=O)N[C@@H](CO)C(=O)N[C@@H](CC(N)=O)C(=O)O)NC(=O)[C@H](Cc2ccc(O)cc2)NC(=O)[C@H](CCCNC(=N)N)NC(=O)[C@H](CCCNC(=N)N)NC(=O)CNC1=O [VGCGRRYCSN] (H-VGCGRRYCSN-OH; disulfide 3-8)

IC50 [2]: > 1000 µM
Molecule: CC(=O)N[C@H](C(=O)NCC(=O)N[C@H]1CSSC[C@@H](C(=O)N[C@@H](CO)C(=O)N[C@@H](CC(N)=O)C(=O)O)NC(=O)[C@H](Cc2ccc(O)cc2)NC(=O)[C@H](CCCNC(=N)N)NC(=O)[C@H](CCCNC(=N)N)NC(=O)[C@H](C)NC1=O)C(C)C [ac-VGCARRYCSN] (Ac-VGCARRYCSN-OH; disulfide 3-8; C-terminus assumed)

inhibition of rCD13 enzymatic activity, against … (fold decrease) [3]: 3
Molecule: VGCARRYC [… with deletion of Ser-9 and Asn-10]

IC50 of inhibition of rCD13 enzymatic activity [3]: 51 µM
Molecule: CARRYC (disulfide 1-6 (inferred)) [small disulfide-bridged peptide CARRYC]

inhibition of rCD13 enzymatic activity, against … (fold loss of activity) [3]: 270
Molecule: CARRYCSN [… with deletion of Val-1 and Gly-2]

inhibition of rCD13 enzymatic activity, against … (fold loss of activity) [3]: 200
Molecule: GCARRYCSN [… with deletion of Val-1]
